Measurements: US20060276464A1, “Diarylsulfone sulfonamides and use thereof” (Wyeth, priority 2005, published 2006)
Several values for one entry are separate records, joined by “and”; a condition that tells them apart may be missing. Equal values may be shown once. Read-outs that look alike come from different tables or passages of the source.

What was measured:
[1] = biological target: T1, SFRP-1 (Homo sapiens, UniProt Q8N474); assay: Cell-based assay for in vitro measurement of SFRP-1/SARP2 antagonist activity (U2OS cells co-transfected with 16x TCF-tk-Luciferase reporter, Wnt and hSFRP-1); conditions: for fold induction at 15 µM / fold induction at 10 µM: U2OS; for fold induction at 10 µM: read-out: Fold Induction with SFRP-1, U2OS cells, single dose 10 μM, luciferase reporter, fold induction over SFRP-1 control;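 for all read-outs here: U2OS cells co-transfected with a TCF-tk luciferase reporter, a Wnt vector, hSFRP-1 or empty vector and CMV-βgal, luciferase luminescence read in cell lysates alongside βgal activity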
T1 sequence (Q8N474 32-314): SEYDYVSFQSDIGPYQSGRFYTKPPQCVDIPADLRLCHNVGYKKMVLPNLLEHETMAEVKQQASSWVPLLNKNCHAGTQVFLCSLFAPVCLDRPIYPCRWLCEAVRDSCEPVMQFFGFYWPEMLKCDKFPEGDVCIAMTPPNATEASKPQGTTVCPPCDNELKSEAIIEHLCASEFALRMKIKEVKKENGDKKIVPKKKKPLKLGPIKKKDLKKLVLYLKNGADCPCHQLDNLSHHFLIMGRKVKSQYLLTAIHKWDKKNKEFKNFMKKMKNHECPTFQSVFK

[2] = biological target: T1, SFRP-1; assay: Fluorescence polarization binding assay (competitive displacement of a probe compound from SFRP-1); conditions: fluorescence anisotropy, 45 nM SFRP-1, 20 nM probe;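 note: test compound competes with a fluorescent probe held by SFRP-1, seen as a drop in probe anisotropy after incubation in darkness, with anisotropy as function of rising compound dose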
[3] = read-out: Fold Induction with SFRP-1, Conc 15 μM, with SFRP-1, fold induction over SFRP-1 control, single dose
[4] = read-out: Fold Induction without SFRP-1, Conc 15 μM, without SFRP-1, single dose
[5] = read-out: Fold Induction with SFRP-1, Conc 15 μM, single dose, luciferase reporter, fold induction over SFRP-1 control, cells with SFRP-1
[6] = read-out: Fold Induction without SFRP-1, Conc 15 μM, single dose, luciferase reporter, cells without SFRP-1 (specificity control)

COc1ccc(OC)c(S(=O)(=O)c2ccc(C)c(S(=O)(=O)NCCc3ccccn3)c2)c1 [Example 421, 5-[(2,5-dimethoxyphenyl)sulfonyl]-2-methyl-N-(2-pyridin-2-ylethyl)benzenesulfonamide]
fold induction at 15 µM [1, 3]: 2.2
fold induction at 15 µM [1, 4]: 1.2
IC50 [2]: 9000 nM

O=C(c1ccnc(Cl)c1)N1CCC(NS(=O)(=O)c2cc(S(=O)(=O)c3ccccc3)ccc2C(F)(F)F)CC1 [Example 978, N-[1-(2-chloroisonicotinoyl)piperidin-4-yl]-5-(phenylsulfonyl)-2-(trifluoromethyl)benzenesulfonamide]
EC50 [1]: 392 nM
IC50 [2]: 250 nM

COc1ccc(Cl)cc1S(=O)(=O)c1ccc(C(C)C)c(S(=O)(=O)NCCc2ccccn2)c1 [Example 509, 5-[(5-chloro-2-methoxyphenyl)sulfonyl]-2-isopropyl-N-(2-pyridin-2-ylethyl)benzenesulfonamide]
fold induction at 15 µM [1, 5]: 1.9
fold induction at 15 µM [1, 6]: 1
IC50 [2]: 1200 nM

C[C@H](C(N)=O)N1CCC(NS(=O)(=O)c2cc(S(=O)(=O)c3ccccc3)ccc2C(F)(F)F)CC1 [Example 1038, (2R)-2-[4-({[5-(phenylsulfonyl)-2-(trifluoromethyl)phenyl]sulfonyl}amino)piperidin-1-yl]propanamide]
EC50 [1]: 331 nM
IC50 [2]: 100 nM

CCOC(=O)CNC(=O)N(C)CCNS(=O)(=O)c1cc(S(=O)(=O)c2ccccc2)ccc1C(F)(F)F [Example 882, ethyl N-({methyl[2-({[5-(phenylsulfonyl)-2-(trifluoromethyl)phenyl]sulfonyl}amino)ethyl]amino}carbonyl)glycinate]
EC50 [1]: 627 nM
fold induction at 10 µM [1]: 3.4
IC50 [2]: 80 nM

N#CCCNS(=O)(=O)c1cc(S(=O)(=O)c2cccc(Cl)c2)ccc1C(F)(F)F [Example 752, 5-[(3-chlorophenyl)sulfonyl]-N-(2-cyanoethyl)-2-(trifluoromethyl)benzenesulfonamide]
EC50 [1]: 1090 nM
fold induction at 10 µM [1]: 3.8
IC50 [2]: 400 nM

O=C(O)CCNS(=O)(=O)c1cc(S(=O)(=O)c2ccccc2)ccc1C(F)(F)F [Example 889, N-{[5-(phenylsulfonyl)-2-(trifluoromethyl)phenyl]sulfonyl}-[…]-alanine]
fold induction at 10 µM [1]: 1.3
IC50 [2]: 4000 nM

CC(C)(C)OC(=O)N1CCC(CNS(=O)(=O)c2cc(S(=O)(=O)c3ccccc3)ccc2C(F)(F)F)CC1 [Example 896, tert-butyl 4-[({[5-(phenylsulfonyl)-2-(trifluoromethyl)phenyl]sulfonyl}amino)methyl]piperidine-1-carboxylate]
EC50 [1]: 675 nM
fold induction at 10 µM [1]: 2.9
IC50 [2]: 300 nM

CC(C)(C)OC(=O)N1CCC(CCNS(=O)(=O)c2cc(S(=O)(=O)c3ccccc3)ccc2C(F)(F)F)CC1 [Example 931, tert-butyl 4-[2-({[5-(phenylsulfonyl)-2-(trifluoromethyl)phenyl]sulfonyl}amino)ethyl]piperidine-1-carboxylate]
EC50 [1]: 1300 nM
fold induction at 10 µM [1]: 2.9
IC50 [2]: 4000 nM

O=S(=O)(NCCC1CCCN1)c1cc(S(=O)(=O)c2ccccc2)ccc1C(F)(F)F (centres unmarked) [Example 913, 5-(phenylsulfonyl)-N-(2-pyrrolidin-2-ylethyl)-2-(trifluoromethyl)benzenesulfonamide]
EC50 [1]: 7010 nM
fold induction at 10 µM [1]: 3.1
IC50 [2]: 3000 nM

CC(C)(C)OC(=O)N1CCC(NC(=O)NCCNS(=O)(=O)c2cc(S(=O)(=O)c3ccccc3)ccc2C(F)(F)F)CC1 [Example 1046, tert-butyl 4-[({[2-({[5-(phenylsulfonyl)-2-(trifluoromethyl)phenyl]sulfonyl}amino)ethyl]amino}carbonyl)amino]piperidine-1-carboxylate]
EC50 [1]: 3440 nM
IC50 [2]: 800 nM

O=C(c1cc(F)cc(F)c1)N1CCC(NS(=O)(=O)c2cc(S(=O)(=O)c3ccccc3)ccc2C(F)(F)F)CC1 [Example 706, N-[1-(3,5-difluorobenzoyl)piperidin-4-yl]-5-(phenylsulfonyl)-2-(trifluoromethyl)benzenesulfonamide]
EC50 [1]: 503 nM
fold induction at 10 µM [1]: 3.7
IC50 [2]: 180 nM

CC(C)c1ccc(S(=O)(=O)c2ccc(N(C)C)cc2)cc1S(=O)(=O)NC1CCOCC1 [Example 544, 5-{[4-(dimethylamino)phenyl]sulfonyl}-2-isopropyl-N-(tetrahydro-2H-pyran-4-yl)benzenesulfonamide]
fold induction at 15 µM [1, 5]: 2.7
fold induction at 15 µM [1, 6]: 1.2
IC50 [2]: 800 nM and 1700 nM

CC(CO)NS(=O)(=O)c1cc(S(=O)(=O)c2ccc(F)cc2)ccc1C(C)C (centres unmarked) [Example 733, 5-[(4-fluorophenyl)sulfonyl]-N-(2-hydroxy-1-methylethyl)-2-isopropylbenzenesulfonamide]
fold induction at 10 µM [1]: 2.5
IC50 [2]: 10000 nM

Cc1ccc(S(=O)(=O)c2ccc(C(C)(C)C)cc2)cc1S(=O)(=O)NC1CCOCC1 [Example 440, 5-[(4-tert-butylphenyl)sulfonyl]-2-methyl-N-(tetrahydro-2H-pyran-4-yl)benzenesulfonamide]
fold induction at 15 µM [1, 3]: 1.8
fold induction at 15 µM [1, 4]: 1.1
IC50 [2]: 3000 nM

COC(=O)[C@H]1CC[C@H](CNS(=O)(=O)c2cc(S(=O)(=O)c3ccccc3)ccc2C(F)(F)F)CC1 [Example 947, methyl trans-4-[({[5-(phenylsulfonyl)-2-(trifluoromethyl)phenyl]sulfonyl}amino)methyl]cyclohexanecarboxylate]
EC50 [1]: 695 nM
fold induction at 10 µM [1]: 3.2
IC50 [2]: 400 nM

CCOC(=O)CCN(C)CCNS(=O)(=O)c1cc(S(=O)(=O)c2ccccc2)ccc1C(F)(F)F [Example 907, ethyl N-methyl-N-[2-({[5-(phenylsulfonyl)-2-(trifluoromethyl)phenyl]sulfonyl}amino)ethyl]-β-alaninate]
fold induction at 10 µM [1]: 2.2
IC50 [2]: 900 nM

CCCc1ccc(S(=O)(=O)c2ccc(F)cc2)cc1S(=O)(=O)NCCc1ccccc1 [Example 559, 5-[(4-fluorophenyl)sulfonyl]-N-(2-phenylethyl)-2-propylbenzenesulfonamide]
fold induction at 15 µM [1, 5]: 2.3
fold induction at 15 µM [1, 6]: 1
IC50 [2]: 1200 nM

Cc1cc(C(=O)N2CCC(NS(=O)(=O)c3cc(S(=O)(=O)c4ccccc4)ccc3C(F)(F)F)CC2)cc(Cl)n1 [Example 856, N-[1-(2-chloro-6-methylisonicotinoyl)piperidin-4-yl]-5-(phenylsulfonyl)-2-(trifluoromethyl)benzenesulfonamide]
EC50 [1]: 360 nM
fold induction at 10 µM [1]: 4.2
IC50 [2]: 100 nM

CC(C)c1ccc(S(=O)(=O)c2ccc(F)cc2)cc1S(=O)(=O)NCC(O)c1ccccn1 (centres unmarked) [Example 727, 5-[(4-fluorophenyl)sulfonyl]-N-(2-hydroxy-2-pyridin-2-ylethyl)-2-isopropylbenzenesulfonamide]
fold induction at 10 µM [1]: 3.2
IC50 [2]: 10000 nM

Cc1ccc(S(=O)(=O)c2ccc(N[C@@H](C)C3CCCCC3)cc2)cc1S(=O)(=O)NCCCn1ccnc1 [Example 371, 5-[(4-{[(1S)-1-cyclohexylethyl]amino}phenyl)sulfonyl]-N-[3-(1H-imidazol-1-yl)propyl]-2-methylbenzenesulfonamide]
fold induction at 15 µM [1, 3]: 1.4
fold induction at 15 µM [1, 4]: 0.8
IC50 [2]: 7000 nM
